One may read the IC50 as the concentration needed to halve the response being measured.

This is an account of results in patent US20090239841A1, “Diaryl Ureas as CB1 Antagonists” (priority 2004, published 2009).

This experiment has as its target T1, hCB1 (Homo sapiens, UniProt P21554).
T1 construct: made in house; host or cells: Sf9 insect cells (baculovirus), P2 membranes
Kind of experiment: Agonist-induced GTP binding (GTPγ35S) assay at CB1, Example 8. It counts as biochemical. Conditions: read-out: IC50. In short, it runs like this: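 Antagonism read as inhibition of 1 nM CP55,940-stimulated GTPγ35S ([…]) binding, compounds at 10^−10 to 10^−5 M. Baculovirus-infected Sf9 membranes bearing hCB1 plus G-protein subunits, 60 min room-temperature incubation with 5 μM GDP. Filtration and scintillation counting; data as percent over basal.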

Where [1] appears, read: Table II, IC50 at CB1, GTP binding with 1 nM CP55,940.
Where [2] appears, read: IC50 at CB1, determined as described in Example 8.
Setting [3] is: Table I, IC50 at CB1, GTP binding with 1 nM CP55,940.

Read-outs that look alike come from different tables or passages of the source.

T1 sequence (P21554 whole entry): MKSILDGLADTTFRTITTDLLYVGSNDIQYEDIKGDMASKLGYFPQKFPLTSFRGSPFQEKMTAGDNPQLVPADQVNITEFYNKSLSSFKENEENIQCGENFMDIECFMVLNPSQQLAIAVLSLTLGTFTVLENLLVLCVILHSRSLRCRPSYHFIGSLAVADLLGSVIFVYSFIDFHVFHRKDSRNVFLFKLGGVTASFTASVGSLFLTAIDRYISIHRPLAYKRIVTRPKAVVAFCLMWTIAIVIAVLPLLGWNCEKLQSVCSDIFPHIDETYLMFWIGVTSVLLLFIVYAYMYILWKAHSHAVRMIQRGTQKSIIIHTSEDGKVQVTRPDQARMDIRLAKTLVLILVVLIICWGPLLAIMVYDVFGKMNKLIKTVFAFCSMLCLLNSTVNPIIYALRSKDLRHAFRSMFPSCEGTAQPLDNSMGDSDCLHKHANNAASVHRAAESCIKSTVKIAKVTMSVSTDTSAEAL

In the case of `CC(=O)c1ccc(NC(=O)Nc2cccc(OC(C)C)c2)cc1` [Compound 278, N-(4-acetylphenyl)-N′-(3-isopropoxyphenyl)urea], the 50% inhibitory concentration (IC50) under setting [1] was below 2 µM.

Consider `CCOC(=O)c1cccc(NC(=O)Nc2ccc(OC(C)C)cc2)c1` [Compound 674, ethyl 3-({[(4-isopropoxyphenyl)amino]carbonyl}amino)benzoate], for which the IC50 under setting [2] is below 2 µM.

Consider `CCc1cccc(NC(=O)Nc2ccc(OC(C)C)cc2)c1` [Compound 402, 1-(3-ethylphenyl)-3-(4-isopropoxyphenyl)urea], for which, under setting [2], the 50% inhibitory concentration (IC50) is below 2 µM.

Regarding `CCOC(=O)c1ccc(NC(=O)Nc2ccc(CCO)cc2)cc1` [Compound 754, ethyl 4-[({[4-(2-hydroxyethyl)phenyl]amino}carbonyl)amino] benzoate], the IC50 under setting [2] was below 2 µM.

Turning to `O=C(Nc1ccc(OC(F)F)cc1)Nc1cccc(Oc2ccccc2)c1` [Compound 85, N-[4-(difluoromethoxy)phenyl]-N′-(3-phenoxyphenyl)urea], the IC50 under setting [1] is below 2 µM.

Turning to `CCOc1ccc(NC(=O)Nc2ccc(C(C)=O)cc2)cc1` [Compound 267, N-(4-acetylphenyl)-N′-(4-ethoxyphenyl)urea], under setting [1], the IC50 was below 2 µM.

Regarding `CCCc1ccc(NC(=O)Nc2ccc(OC(F)(F)F)cc2)cc1` [Compound 519, 1-(4-propylphenyl)-3-[4-(trifluoromethoxy)phenyl]urea], under setting [2], the IC50 was below 2 µM.

In the case of `CCOC(=O)c1ccc(NC(=O)Nc2ccc(F)c(C)c2)cc1` [Compound 738, ethyl 4-({[(4-fluoro-3-methylphenyl)amino]carbonyl}amino)benzoate], under setting [2], the IC50 is below 2 µM.

Turning to `CCc1ccc(NC(=O)Nc2cccc([N+](=O)[O-])c2)cc1` [Compound 527, 1-(4-ethylphenyl)-3-(3-nitrophenyl)urea], the concentration for half-maximal inhibition (IC50) under setting [2] was below 2 µM.

Consider `N#CCOc1ccc(NC(=O)Nc2ccc(C#N)cc2)cc1` [Compound 506, 1-[4-(cyanomethoxy)phenyl]-3-(4-cyanophenyl)urea], for which the half-inhibitory concentration (IC50) under setting [2] is below 2 µM.

Take `CCc1ccc(NC(=O)Nc2ccccn2)cc1` [Compound 638, 1-(4-ethylphenyl)-3-pyridin-2-ylurea]: the concentration for half-maximal inhibition (IC50) under setting [2] is below 2 µM.

On to `CCc1cccc(NC(=O)Nc2ccc(OC(C)C)cc2)c1` [Compound 249, N-(3-ethylphenyl)-N′-(4-isopropoxyphenyl)urea], for which, under setting [1], the IC50 is below 2 µM.

On to `CCOc1cccc(NC(=O)Nc2ccc(CC)cc2)c1` [Compound 231, N-(3-ethoxyphenyl)-N′-(4-ethylphenyl)urea], for which the IC50 under setting [1] was below 2 µM.

`O=C(Nc1ccc(OC(F)F)cc1)Nc1cccc(-c2cocn2)c1` [Compound 138]: the IC50 under setting [1] is below 2 µM.

On to `CCC(=O)c1ccc(NC(=O)Nc2cc(F)cc(F)c2)cc1` [Compound 744, 1-(3,5-difluorophenyl)-3-(4-propionylphenyl)urea], for which, under setting [2], the IC50 is below 2 µM.

As for `COC(=O)c1cccc(NC(=O)Nc2ccc(C)c(Cl)c2)c1` [Compound 769, methyl 3-({[(3-chloro-4-methylphenyl)amino]carbonyl}amino)benzoate], the half-inhibitory concentration (IC50) under setting [2] is below 2 µM.

In the case of `O=C(Nc1ccc(OC(F)F)cc1)Nc1ccc2c(c1)C(=O)CC2` [Compound 83, N-[4-(difluoromethoxy)phenyl]-N′-(3-oxo-2,3-dihydro-1H-inden-5-yl)urea], under setting [1], the IC50 is below 2 µM.

As to `COc1cccc(NC(=O)Nc2ccc(C)c(F)c2)c1` [Compound 614, 1-(3-fluoro-4-methylphenyl)-3-(3-methoxyphenyl)urea], the 50% inhibitory concentration (IC50) under setting [2] is below 2 µM.

On to `O=C(Nc1ccccc1)Nc1ccc(OC(F)F)cc1` [Compound 48, N-[4-(difluoromethoxy)phenyl]-N′-phenylurea], for which the half-maximal inhibitory concentration (IC50) under setting [3] was below 2 µM.

`CCCc1ccc(NC(=O)Nc2ccc(C)c(F)c2)cc1` [Compound 655, 1-(3-fluoro-4-methylphenyl)-3-(4-propylphenyl)urea]: under setting [2], the IC50 is below 2 µM.

For the molecule `CCCOc1ccc(NC(=O)Nc2cccc(F)c2)cc1` [Compound 209, N-(3-fluorophenyl)-N′-(4-propoxyphenyl)urea], the IC50 under setting [1] was below 2 µM.

For the molecule `O=C(Nc1ccc(OC(F)F)cc1)Nc1cccc(-c2ccc(C(F)(F)F)cn2)c1` [Compound 66, N-[4-(difluoromethoxy)phenyl]-N′-{3-[5-(trifluoromethyl)pyridin-2-yl]phenyl}urea], the IC50 under setting [1] is below 2 µM.

In the case of `N#CCOc1ccc(NC(=O)Nc2cccc(OC(F)F)c2)cc1` [Compound 783, N-[4-(cyanomethoxy)phenyl]-N′-[3-(difluoromethoxy)phenyl]urea], under setting [2], the IC50 is below 2 µM.

Turning to `O=C(Nc1ccc(OC(F)F)cc1)Nc1ccc(C(F)(F)F)nc1` [Compound 76, N-[4-(difluoromethoxy)phenyl]-N′-[6-(trifluoromethyl)pyridin-3-yl]urea], the IC50 under setting [1] was below 2 µM.

Regarding `CCOc1ccc(NC(=O)Nc2ccc(OC(F)F)cc2)cc1` [Compound 131, N-[4-(difluoromethoxy)phenyl]-N′-(4-ethoxyphenyl)urea], the half-maximal inhibitory concentration (IC50) under setting [1] is below 2 µM.

With `CCOc1cccc(NC(=O)Nc2ccc(Cl)cc2)c1` [Compound 386, 1-(4-chlorophenyl)-3-(3-ethoxyphenyl)urea], under setting [2], the 50% inhibitory concentration (IC50) is below 2 µM.

On to `CCOC(=O)c1ccc(NC(=O)Nc2ccccc2Br)cc1` [Compound 764, ethyl 4-({[(2-bromophenyl)amino]carbonyl}amino)benzoate], for which the concentration for half-maximal inhibition (IC50) under setting [2] was below 2 µM.

Take `CC(C)c1ccc(NC(=O)Nc2ccc(Cl)cc2)cc1` [Compound 333, 1-(4-chlorophenyl)-3-(4-isopropylphenyl)urea]: the IC50 under setting [2] is below 2 µM.

As for `Cc1ccc(F)c(NC(=O)Nc2cccc(OC(F)F)c2)c1` [Compound 699, 1-[3-(difluoromethoxy)phenyl]-3-(2-fluoro-5-methylphenyl)urea], the IC50 under setting [2] was below 2 µM.

Take `CCOc1ccc(NC(=O)Nc2ccccc2)cc1` [Compound 223, N-(4-ethoxyphenyl)-N′-phenylurea]: the IC50 under setting [1] is below 2 µM.

`Cc1cccc(NC(=O)Nc2ccc(OC(F)F)cc2)c1` [Compound 18, N-[4-(difluoromethoxy)phenyl]-N′-(3-methylphenyl)urea]: under setting [3], the half-maximal inhibitory concentration (IC50) was below 2 µM.

Regarding `O=C(Nc1ccc(OC(F)F)cc1)Nc1cccc(OC(F)F)c1` [Compound 103, N-[3-(difluoromethoxy)phenyl]-N′-[4-(difluoromethoxy)phenyl]urea], under setting [1], the IC50 is below 2 µM.

`O=C(Nc1ccc(OC(F)F)cc1)Nc1cc(Cl)cc(Cl)c1` [Compound 93, N-(3,5-dichlorophenyl)-N′-[4-(difluoromethoxy)phenyl]urea]: under setting [1], the half-inhibitory concentration (IC50) was below 2 µM.

As for `O=C(Nc1cccc(Cl)c1)Nc1cccc(OC(F)F)c1` [Compound 255, N-(3-chlorophenyl)-N′-[3-(difluoromethoxy)phenyl]urea], the IC50 under setting [1] was below 2 µM.

As for `Cc1ccc(NC(=O)Nc2ccc(F)c(F)c2)cc1F` [Compound 774, 1-(3,4-difluorophenyl)-3-(3-fluoro-4-methylphenyl)urea], under setting [2], the IC50 is below 2 µM.

On to `CCOC(=O)c1ccc(NC(=O)Nc2cccc(C(=O)OCC)c2)cc1` [Compound 722, ethyl 3-[({[4-(ethoxycarbonyl)phenyl]amino}carbonyl)amino] benzoate], for which the IC50 under setting [2] is below 2 µM.

Consider `CCOC(=O)c1ccc(NC(=O)Nc2cccc(O)c2)cc1` [Compound 746, ethyl 4-({[(3-hydroxyphenyl)amino]carbonyl}amino)benzoate], for which the IC50 under setting [2] is below 2 µM.
